Assay results taken from the supplement of paper PMC8967900.

test system: P30-OHKUBO; assay: selective drug sensitivity score (sDSS, relative to normal bone marrow) (sDSS (score)); higher = more potent and effective on the cell line relative to normal bone marrow cells; conditions: 72 h
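Further: ALL cell lines in 384-well plates, five doses spanning 10,000-fold, each plate scaled between vehicle and 100 µmol/L benzalkonium chloride controls, sDSS an adapted area-under-curve metric.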

Compound	selective drug sensitivity score
C/C=C1\NC(=O)[C@H]2CSSCC/C=C/[C@H](CC(=O)N[C@H](C(C)C)C(=O)N2)OC(=O)[C@H](C(C)C)NC1=O [Romidepsin] (top concentration 1000 nM)	1.66
CN(C)CCOc1ccc(/C(=C(/CCCl)c2ccccc2)c2ccccc2)cc1 [Toremifene] (top concentration 10000 nM)	0.58
CCCCc1nc2cc(/C=C/C(=O)NO)ccc2n1CCN(CC)CC [Pracinostat] (top concentration 10000 nM)	5.68
Cn1ncc(Cl)c1-c1cc(C(=O)N[C@H](CN)Cc2cccc(F)c2)sc1Cl [Afuresertib] (top concentration 1000 nM)	5.56
Cc1cc(-c2nc(-c3ccc(OC(F)(F)F)cc3)no2)nn1Cc1ccnc(N2CCN(C3CC3)CC2)c1 [BAY_87-2243] (top concentration 1000 nM)	6.44
CNc1nc(-c2ccc3c(N)n[nH]c3c2)cc(N2C[C@@H](C(=O)NC3CCCCC3)CC[C@H]2C)n1 (top concentration 10000 nM)	7.86
CN1CC[C@H](c2c(O)cc(O)c3c(=O)cc(-c4ccccc4Cl)oc23)[C@H](O)C1 [Alvocidib] (top concentration 10000 nM)	1.1
Cc1cc2c(C(C)C)c(O)c(O)c(C=O)c2c(O)c1-c1c(C)cc2c(C(C)C)c(O)c(O)c(C=O)c2c1O [AT-101] (top concentration 100000 nM)	5.18
Cc1ccc(C(=O)Nc2cccc(C(F)(F)F)c2)cc1Nc1nc(-c2cccnc2)nc2c1cnn2C [NVP-BHG712] (top concentration 10000 nM)	5.98
COC[C@H](NC(=O)c1cnc(C)s1)C(=O)N[C@@H](COC)C(=O)N[C@@H](Cc1ccccc1)C(=O)[C@@]1(C)CO1 [Oprozomib] (top concentration 2500 nM)	5.7
Cc1ccc(C(=O)N(CCCN)[C@@H](c2oc3cc(Cl)ccc3c(=O)c2Cc2ccccc2)C(C)C)cc1 (top concentration 100 nM)	4.06
CCn1c(C(=O)N(C2CC2)C2CC2)cc2c3c(ncn3C)c(Nc3cc(C)n(C)n3)nc21 (top concentration 10000 nM)	-3.66
Nc1nc(Cl)nc2c1ncn2[C@@H]1O[C@H](CO)[C@@H](O)[C@@H]1F [Clofarabine] (top concentration 10000 nM)	10.3
Cc1ccc(C(=O)Nc2ccc(Oc3cc4cnn(C)c4cc3-c3cn[nH]c3)c(F)c2)c(=O)n1-c1ccc(F)cc1 [Merestinib] (top concentration 1000 nM)	0.88
Nc1ncn([C@@H]2O[C@H](CO)[C@@H](O)[C@H]2O)c(=O)n1 [Azacitidine] (top concentration 10000 nM)	6.54
CC(C)c1cc(-c2n[nH]c(=O)n2-c2ccc3c(ccn3C)c2)c(O)cc1O [Ganetespib] (top concentration 1000 nM)	2.24
C[C@]1(c2nc3c(C(N)=O)cccc3[nH]2)CCCN1 [Veliparib] (top concentration 10000 nM)	4.42

test system: RCH-ACV; assay: as above; conditions: 72 h

Compound	selective drug sensitivity score
C/C=C1\NC(=O)[C@H]2CSSCC/C=C/[C@H](CC(=O)N[C@H](C(C)C)C(=O)N2)OC(=O)[C@H](C(C)C)NC1=O [Romidepsin] (top concentration 1000 nM)	2.36
CN(C)CCOc1ccc(/C(=C(/CCCl)c2ccccc2)c2ccccc2)cc1 [Toremifene] (top concentration 10000 nM)	6.88
CCCCc1nc2cc(/C=C/C(=O)NO)ccc2n1CCN(CC)CC [Pracinostat] (top concentration 10000 nM)	14.6
Cn1ncc(Cl)c1-c1cc(C(=O)N[C@H](CN)Cc2cccc(F)c2)sc1Cl [Afuresertib] (top concentration 1000 nM)	5.36
Cc1cc(-c2nc(-c3ccc(OC(F)(F)F)cc3)no2)nn1Cc1ccnc(N2CCN(C3CC3)CC2)c1 [BAY_87-2243] (top concentration 1000 nM)	14.4
CNc1nc(-c2ccc3c(N)n[nH]c3c2)cc(N2C[C@@H](C(=O)NC3CCCCC3)CC[C@H]2C)n1 (top concentration 10000 nM)	18.6
CN1CC[C@H](c2c(O)cc(O)c3c(=O)cc(-c4ccccc4Cl)oc23)[C@H](O)C1 [Alvocidib] (top concentration 10000 nM)	2.7
Cc1cc2c(C(C)C)c(O)c(O)c(C=O)c2c(O)c1-c1c(C)cc2c(C(C)C)c(O)c(O)c(C=O)c2c1O [AT-101] (top concentration 100000 nM)	0.98
Cc1ccc(C(=O)Nc2cccc(C(F)(F)F)c2)cc1Nc1nc(-c2cccnc2)nc2c1cnn2C [NVP-BHG712] (top concentration 10000 nM)	7.78
COC[C@H](NC(=O)c1cnc(C)s1)C(=O)N[C@@H](COC)C(=O)N[C@@H](Cc1ccccc1)C(=O)[C@@]1(C)CO1 [Oprozomib] (top concentration 2500 nM)	-1.1
Cc1ccc(C(=O)N(CCCN)[C@@H](c2oc3cc(Cl)ccc3c(=O)c2Cc2ccccc2)C(C)C)cc1 (top concentration 100 nM)	1.96
CCn1c(C(=O)N(C2CC2)C2CC2)cc2c3c(ncn3C)c(Nc3cc(C)n(C)n3)nc21 (top concentration 10000 nM)	-3.06
Nc1nc(Cl)nc2c1ncn2[C@@H]1O[C@H](CO)[C@@H](O)[C@@H]1F [Clofarabine] (top concentration 10000 nM)	6.8
Cc1ccc(C(=O)Nc2ccc(Oc3cc4cnn(C)c4cc3-c3cn[nH]c3)c(F)c2)c(=O)n1-c1ccc(F)cc1 [Merestinib] (top concentration 1000 nM)	1.08
Nc1ncn([C@@H]2O[C@H](CO)[C@@H](O)[C@H]2O)c(=O)n1 [Azacitidine] (top concentration 10000 nM)	5.24
CC(C)c1cc(-c2n[nH]c(=O)n2-c2ccc3c(ccn3C)c2)c(O)cc1O [Ganetespib] (top concentration 1000 nM)	3.44
C[C@]1(c2nc3c(C(N)=O)cccc3[nH]2)CCCN1 [Veliparib] (top concentration 10000 nM)	-2.58

test system: REH; assay: as above; conditions: 72 h

Compound	selective drug sensitivity score
C/C=C1\NC(=O)[C@H]2CSSCC/C=C/[C@H](CC(=O)N[C@H](C(C)C)C(=O)N2)OC(=O)[C@H](C(C)C)NC1=O [Romidepsin] (top concentration 1000 nM)	1.26
CN(C)CCOc1ccc(/C(=C(/CCCl)c2ccccc2)c2ccccc2)cc1 [Toremifene] (top concentration 10000 nM)	-1.52
CCCCc1nc2cc(/C=C/C(=O)NO)ccc2n1CCN(CC)CC [Pracinostat] (top concentration 10000 nM)	0.38
Cn1ncc(Cl)c1-c1cc(C(=O)N[C@H](CN)Cc2cccc(F)c2)sc1Cl [Afuresertib] (top concentration 1000 nM)	3.56
Cc1cc(-c2nc(-c3ccc(OC(F)(F)F)cc3)no2)nn1Cc1ccnc(N2CCN(C3CC3)CC2)c1 [BAY_87-2243] (top concentration 1000 nM)	17.1
CNc1nc(-c2ccc3c(N)n[nH]c3c2)cc(N2C[C@@H](C(=O)NC3CCCCC3)CC[C@H]2C)n1 (top concentration 10000 nM)	3.86
CN1CC[C@H](c2c(O)cc(O)c3c(=O)cc(-c4ccccc4Cl)oc23)[C@H](O)C1 [Alvocidib] (top concentration 10000 nM)	-2
Cc1cc2c(C(C)C)c(O)c(O)c(C=O)c2c(O)c1-c1c(C)cc2c(C(C)C)c(O)c(O)c(C=O)c2c1O [AT-101] (top concentration 100000 nM)	5.28
